Numbers after ± are expanded uncertainties.
Test: xn = mol fraction of the nth substance listed
Settings: Liquid

`C[N+](=O)[O-]` [nitromethane] + O=C=O gave a molar volume (298 K, x2 = 0.12) of 4.93e-05 ± 1e-06 m3/mol, a molar volume (298 K, x2 = 0.238) of 4.83e-05 ± 1e-06 m3/mol and a molar volume (298 K, x2 = 0.346) of 4.76e-05 ± 1e-06 m3/mol. The molar volume (298 K, x2 = 0.457) was 4.74e-05 ± 1e-06 m3/mol, the molar volume (298 K, x2 = 0.552) was 4.74e-05 ± 1e-06 m3/mol and the molar volume (298 K, x2 = 0.678) was 4.71e-05 ± 1e-06 m3/mol. For the same compound, the molar volume (298 K, x2 = 0.747) was 4.77e-05 ± 1e-06 m3/mol, the molar volume (298 K, x2 = 0.81) was 4.78e-05 ± 1e-06 m3/mol and the molar volume (298 K, x2 = 0.855) was 4.87e-05 ± 1e-06 m3/mol. It also gave a molar volume (298 K, x2 = 0.876) of 4.91e-05 ± 1e-06 m3/mol, a molar volume (313 K, x2 = 0.048) of 5.88e-05 ± 1.4e-06 m3/mol and a molar volume (313 K, x2 = 0.119) of 5.71e-05 ± 1.3e-06 m3/mol. It also gave a molar volume (313 K, x2 = 0.183) of 5.56e-05 ± 1.3e-06 m3/mol, a molar volume (313 K, x2 = 0.254) of 5.51e-05 ± 1.3e-06 m3/mol and a molar volume (313 K, x2 = 0.32) of 5.45e-05 ± 1.3e-06 m3/mol. For the same compound, the molar volume (313 K, x2 = 0.385) was 5.37e-05 ± 1.2e-06 m3/mol, the molar volume (313 K, x2 = 0.479) was 5.32e-05 ± 1.2e-06 m3/mol and the molar volume (313 K, x2 = 0.546) was 5.23e-05 ± 1.2e-06 m3/mol. It also gave a molar volume (313 K, x2 = 0.627) of 5.09e-05 ± 1.2e-06 m3/mol, a molar volume (313 K, x2 = 0.727) of 4.99e-05 ± 1.1e-06 m3/mol and a molar volume (313 K, x2 = 0.791) of 5.08e-05 ± 1.2e-06 m3/mol.
`FC(F)(F)C(F)(F)C(F)(F)C(F)(F)C(F)(F)C(F)(F)F` [perfluorohexane] + O=C=O gave a molar volume (313 K, x2 = 0.146) of 0.0001867 ± 4.5e-06 m3/mol, a molar volume (313 K, x2 = 0.163) of 0.000187 ± 4.5e-06 m3/mol and a molar volume (313 K, x2 = 0.262) of 0.0001742 ± 4.2e-06 m3/mol. For the same compound, the molar volume (313 K, x2 = 0.27) was 0.0001732 ± 4.1e-06 m3/mol, the molar volume (313 K, x2 = 0.339) was 0.0001655 ± 3.9e-06 m3/mol and the molar volume (313 K, x2 = 0.424) was 0.0001511 ± 3.6e-06 m3/mol. The molar volume (313 K, x2 = 0.474) was 0.0001448 ± 3.4e-06 m3/mol, the molar volume (313 K, x2 = 0.547) was 0.0001324 ± 3.1e-06 m3/mol and the molar volume (313 K, x2 = 0.615) was 0.0001235 ± 2.9e-06 m3/mol. It also gave a molar volume (313 K, x2 = 0.665) of 0.0001165 ± 2.7e-06 m3/mol, a molar volume (313 K, x2 = 0.721) of 0.0001062 ± 2.5e-06 m3/mol and a molar volume (313 K, x2 = 0.765) of 9.7e-05 ± 2.3e-06 m3/mol. The molar volume (313 K, x2 = 0.776) was 9.49e-05 ± 2.2e-06 m3/mol, the molar volume (313 K, x2 = 0.811) was 9.03e-05 ± 2.1e-06 m3/mol and the molar volume (313 K, x2 = 0.836) was 9.17e-05 ± 2.1e-06 m3/mol.
`CC(C)O` [propan-2-ol] + O=C=O showed a molar volume (313 K, x2 = 0.018) of 7.97e-05 ± 9e-07 m3/mol, a molar volume (313 K, x2 = 0.065) of 7.88e-05 ± 9e-07 m3/mol and a molar volume (313 K, x2 = 0.133) of 7.62e-05 ± 9e-07 m3/mol. It also gave a molar volume (313 K, x2 = 0.21) of 7.45e-05 ± 8e-07 m3/mol, a molar volume (313 K, x2 = 0.3) of 7.17e-05 ± 8e-07 m3/mol and a molar volume (313 K, x2 = 0.401) of 6.85e-05 ± 8e-07 m3/mol. The molar volume (313 K, x2 = 0.51) was 6.4e-05 ± 7e-07 m3/mol, the molar volume (313 K, x2 = 0.639) was 6.06e-05 ± 7e-07 m3/mol and the molar volume (313 K, x2 = 0.725) was 5.99e-05 ± 7e-07 m3/mol. For the same compound, the molar volume (313 K, x2 = 0.788) was 6.01e-05 ± 7e-07 m3/mol.
Compound `C1CCOC1` [tetrahydrofuran] + O=C=O has a molar volume (298 K, x2 = 0.132) of 7.08e-05 ± 1.4e-06 m3/mol, a molar volume (298 K, x2 = 0.228) of 6.55e-05 ± 1.3e-06 m3/mol and a molar volume (298 K, x2 = 0.333) of 6.46e-05 ± 1.3e-06 m3/mol. It also gave a molar volume (298 K, x2 = 0.451) of 6.2e-05 ± 1.2e-06 m3/mol, a molar volume (298 K, x2 = 0.518) of 6.08e-05 ± 1.2e-06 m3/mol and a molar volume (298 K, x2 = 0.624) of 5.86e-05 ± 1.2e-06 m3/mol. For the same compound, the molar volume (298 K, x2 = 0.736) was 5.64e-05 ± 1.1e-06 m3/mol, the molar volume (298 K, x2 = 0.83) was 5.49e-05 ± 1.1e-06 m3/mol and the molar volume (298 K, x2 = 0.899) was 5.43e-05 ± 1e-06 m3/mol. It also gave a molar volume (313 K, x2 = 0.098) of 7.75e-05 ± 1.8e-06 m3/mol, a molar volume (313 K, x2 = 0.313) of 7.09e-05 ± 1.6e-06 m3/mol and a molar volume (313 K, x2 = 0.398) of 6.82e-05 ± 1.6e-06 m3/mol. The molar volume (313 K, x2 = 0.489) was 6.53e-05 ± 1.5e-06 m3/mol, the molar volume (313 K, x2 = 0.576) was 6.29e-05 ± 1.4e-06 m3/mol and the molar volume (313 K, x2 = 0.655) was 6.23e-05 ± 1.4e-06 m3/mol. The molar volume (313 K, x2 = 0.733) was 6.02e-05 ± 1.4e-06 m3/mol, the molar volume (313 K, x2 = 0.832) was 5.72e-05 ± 1.3e-06 m3/mol and the molar volume (313 K, x2 = 0.89) was 6.02e-05 ± 1.3e-06 m3/mol. For the same compound, the molar volume (333 K, x2 = 0.165) was 7.45e-05 ± 2e-06 m3/mol, the molar volume (333 K, x2 = 0.26) was 7.34e-05 ± 2e-06 m3/mol and the molar volume (333 K, x2 = 0.404) was 6.87e-05 ± 1.9e-06 m3/mol. It also gave a molar volume (333 K, x2 = 0.539) of 6.6e-05 ± 1.8e-06 m3/mol, a molar volume (333 K, x2 = 0.696) of 5.84e-05 ± 1.6e-06 m3/mol and a molar volume (333 K, x2 = 0.808) of 6.04e-05 ± 1.6e-06 m3/mol. It also gave a molar volume (333 K, x2 = 0.85) of 6.29e-05 ± 1.7e-06 m3/mol and a molar volume (333 K, x2 = 0.893) of 7.05e-05 ± 1.9e-06 m3/mol.
For `Cc1ccccc1` [toluene] + O=C=O, the molar volume (323 K, x2 = 0.091) was 0.0001014 ± 2.5e-06 m3/mol, the molar volume (323 K, x2 = 0.175) was 9.72e-05 ± 2.4e-06 m3/mol and the molar volume (323 K, x2 = 0.26) was 9.21e-05 ± 2.3e-06 m3/mol. It also gave a molar volume (323 K, x2 = 0.335) of 8.76e-05 ± 2.2e-06 m3/mol, a molar volume (323 K, x2 = 0.408) of 8.37e-05 ± 2.1e-06 m3/mol and a molar volume (323 K, x2 = 0.48) of 8.02e-05 ± 2e-06 m3/mol. The molar volume (323 K, x2 = 0.524) was 7.82e-05 ± 1.9e-06 m3/mol, the molar volume (323 K, x2 = 0.583) was 7.22e-05 ± 1.8e-06 m3/mol and the molar volume (323 K, x2 = 0.644) was 6.72e-05 ± 1.7e-06 m3/mol. For the same compound, the molar volume (323 K, x2 = 0.715) was 6.46e-05 ± 1.6e-06 m3/mol, the molar volume (323 K, x2 = 0.764) was 6.32e-05 ± 1.6e-06 m3/mol and the molar volume (323 K, x2 = 0.821) was 6.23e-05 ± 1.5e-06 m3/mol. For the same compound, the molar volume (323 K, x2 = 0.865) was 6.26e-05 ± 1.6e-06 m3/mol and the molar volume (323 K, x2 = 0.883) was 6.35e-05 ± 1.6e-06 m3/mol.
